Source: patent publication US20140128352A1, “COMPOUNDS AND METHODS FOR MODULATING MITOCHONDRIAL METABOLISM AND REACTIVE OXYGEN SPECIES PRODUCTION” (Buck Institute for Research on Aging, priority 2012, published 2014)
Where two headings read alike, the source gives them in different places.

Assays:
[1] = target: T1, outer ubiquinone binding site of complex III (IIIQO) (Rattus norvegicus, UniProt P00159+P20788); experiment: High-throughput screen: ROS production from outer ubiquinone binding site of complex III (IIIQO); type: biochemical; settings: for IIIQO: Table 8
T1 construct: freshly isolated muscle mitochondria were assayed; from tissue; host or cells: rat skeletal muscle mitochondria (Wistar, Harlan Laboratories)
Procedure: (§1) Skeletal muscle mitochondria were isolated from 5-8 week old female Wistar rats (Harlan Laboratories). Minced muscle was homogenized in buffer containing bacterial protease Type VIII prior to differential centrifugation to separate mitochondria from other tissue components. Unless otherwise stated, freshly isolated muscle mitochondria were assayed in buffer containing 120 mM KCl, 5 mM HEPES, 1 mM EGTA, 0.3% (w/v) bovine serum albumin. Where indicated, CaCl2 was added to yield a final free concentration of 250 nM calcium at pH 7.0 at 37° C.
(§2) Compounds (10 mM in DMSO) were randomly selected from a library of 24,000 compounds obtained from ChemBridge and curated by the lab of Robert Hughes at the Buck Institute. Master screening plates were prepared using a Biomek FX liquid handling workstation (Beckman) to transfer 1 μL of each compound into individual wells on 96-well storage plates (80 compounds per plate). Master plates were sealed with foil and stored at −80° C. Just prior to use, plates were brought to room temperature and diluted 300-fold with standard buffer (13.3X=33.3 μM). To monitor the performance of each assay throughout screening and to provide intra-plate normalization reference points, DMSO negative controls and known mitochondrial inhibitor positive controls were included on each Master compound plate.
(§3) Total amounts of superoxide and H2O2 production were determined fluorometrically as H2O2, without distinguishing between them, in the presence of exogenous superoxide dismutase (25 units/mL final), horseradish peroxidase (1 unit/mL final), and Amplex UltraRed (25 μM final) as described (Affourtit, C. et al. (2012) Measurement of proton leak and electron leak in isolated mitochondria. Methods Mol. Biol. 810: 165-82). Just prior to use, a bulk 3.3X solution was made in standard buffer and distributed into a 2 mL deep well 96-well transfer plate.
To assess the effects of a compound on ROS production from the outer ubiquinone binding site of complex III (IIIQO), Start Solution containing 5 mM succinate, 4 μM rotenone and 2.5 μM antimycin A was distributed into standard 96-well transfer plates. A Biomek FX workstation was programmed to dispense solutions into black 96-well assay plates. Solutions were dispensed to all assay plates in the following order: ROS Detection solution described in Example 3, Mitochondria solution described in Example 1 to a final concentration of 0.1 mg/ml, and Compound dilutions described in Example 2. Duplicate assay plates were made and each was initiated by the addition of 3.3X Start solution containing 5 mM succinate, 4 μM rotenone and 2.5 μM antimycin A. Plates were incubated in the dark at room temperature for 30-40 minutes before acquiring endpoint fluorescence using a Victor 3V plate reader (Perkin Elmer) equipped with 550/590 nm excitation/emission filters.
(§4) The fluorescence values in each well were scaled as the percent change from the intra-plate DMSO controls with the appropriate inhibitor positive controls defined as −100%. Following initial scaling, intra-plate normalized values were subjected to Tukey's two-way median polish to remove row and column dependent positional effects (Malo et al., 2006).

[2] = system: mitochondrial membrane potential (ΔΨm); experiment: Membrane potential (ΔΨm) counterscreen with TMRM; settings: malate, nigericin
[3] = system: ubiquinone binding site of complex I (IQ); experiment: High-throughput screen: ROS production from ubiquinone binding site of complex I (IQ), isolated skeletal muscle mitochondria; type: biochemical, rat; settings: for % Reduction in ROS production (IQ): Table 2, 5 mM succinate, compounds 2.5 μM, percent change from DMSO, positive control −100%; for IQ: percent change in ROS from DMSO controls
Procedure: as §1, §2, §3
To assess the effects of a compound on ROS production from the ubiquinone binding site of complex I (IQ), Start Solution containing 5 mM succinate was distributed into standard 96-well transfer plates. A Biomek FX workstation was programmed to dispense solutions into black 96-well assay plates. Solutions were dispensed to all assay plates in the following order: ROS Detection solution described in Example 3, Mitochondria solution described in Example 1 to a final concentration of 0.1 mg/ml, and Compound dilutions described in Example 2. Duplicate assay plates were made and each was initiated by the addition of 3.3X Start solution containing 5 mM succinate. Plates were incubated in the dark at room temperature for 30-40 minutes before acquiring endpoint fluorescence using a Victor 3V plate reader (Perkin Elmer) equipped with 550/590 nm excitation/emission filters.
The fluorescence values in each well were scaled as the percent change from the intra-plate DMSO controls with the appropriate inhibitor positive controls defined as −100%. Following initial scaling, intra-plate normalized values were subjected to Tukey's two-way median polish to remove row and column dependent positional effects (Malo et al, 2006).

[4] = target: T2, succinate dehydrogenase/complex II (SDH) (Rattus norvegicus, UniProt P21913+Q641Z9+Q6PCT8+Q920L2); experiment: High-throughput screen: ROS production from succinate dehydrogenase/complex II (SDH); type: biochemical; settings: percent change in ROS from DMSO controls; for inhibition at 2.5 µM: Table 7
T2 construct: freshly isolated muscle mitochondria were assayed; from tissue; host or cells: rat skeletal muscle mitochondria (Wistar, Harlan Laboratories)
Procedure: as §1
Just prior to use, plates were brought to room temperature and diluted 300-fold with standard buffer (13.3X=33.3 μM). To monitor the performance of each assay throughout screening and to provide intra-plate normalization reference points, DMSO negative controls and known mitochondrial inhibitor positive controls were included on each Master compound plate.
as §3
To assess the effects of a compound on ROS production from succinate dehydrogenase/complex II (SDH), Start Solution containing 15 μM palmitoyl carnitine, 2.5 μM antimycin A and 2 μM myxothiazol was distributed into standard 96-well transfer plates. A Biomek FX workstation was programmed to dispense solutions into black 96-well assay plates. Solutions were dispensed to all assay plates in the following order: ROS Detection solution described in Example 3, Mitochondria solution described in Example 1 to a final concentration of 0.3 mg/ml, and Compound dilutions described in Example 2. Duplicate assay plates were made and each was initiated by the addition of 3.3X Start solution containing 15 μM palmitoyl carnitine, 2.5 μM antimycin A and 2 μM myxothiazol. Plates were incubated in the dark at room temperature for 30-40 minutes before acquiring endpoint fluorescence using a Victor 3V plate reader (Perkin Elmer) equipped with 550/590 nm excitation/emission filters.
as §4

[5] = target: T3, glycerol-3-phosphate dehydrogenase (GPDH) (Rattus norvegicus, UniProt P35571); experiment: High-throughput screen: ROS production from glycerol-3-phosphate dehydrogenase (GPDH); type: biochemical; set-up: inhibition: dose or concentration left out as unconfirmed; settings: for inhibition: Table 7; for inhibition / GPDH: percent change in ROS from DMSO controls
T3 construct: The activity of GPDH in intact mitochondria (0.3 mg/mL) was measured; from tissue; host or cells: rat skeletal muscle mitochondria (Wistar, Harlan Laboratories)
T3 sequence (P35571 43-727): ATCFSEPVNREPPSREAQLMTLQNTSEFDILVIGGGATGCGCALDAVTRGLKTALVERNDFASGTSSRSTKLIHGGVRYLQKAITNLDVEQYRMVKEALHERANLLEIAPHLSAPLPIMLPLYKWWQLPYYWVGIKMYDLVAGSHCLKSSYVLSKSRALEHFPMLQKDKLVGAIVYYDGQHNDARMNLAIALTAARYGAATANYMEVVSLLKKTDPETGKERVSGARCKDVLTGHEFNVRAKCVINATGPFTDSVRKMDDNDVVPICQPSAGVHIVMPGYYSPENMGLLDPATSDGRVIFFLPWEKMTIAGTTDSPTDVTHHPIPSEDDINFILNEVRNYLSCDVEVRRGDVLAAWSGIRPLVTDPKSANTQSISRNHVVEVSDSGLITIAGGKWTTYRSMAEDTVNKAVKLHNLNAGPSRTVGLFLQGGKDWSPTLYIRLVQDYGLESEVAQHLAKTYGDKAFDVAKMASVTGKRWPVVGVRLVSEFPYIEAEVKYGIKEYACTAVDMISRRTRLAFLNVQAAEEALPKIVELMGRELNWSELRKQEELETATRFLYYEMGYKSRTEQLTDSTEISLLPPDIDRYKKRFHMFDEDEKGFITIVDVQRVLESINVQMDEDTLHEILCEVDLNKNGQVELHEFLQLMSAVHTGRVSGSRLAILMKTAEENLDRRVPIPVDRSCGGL

[6] = target: T4, flavin binding site of complex I (IF) (Rattus norvegicus, UniProt Q5XIH3); experiment: High-throughput screen: ROS production from flavin binding site of complex I (IF); type: biochemical; settings: for inhibition at 2.5 µM: Table 7, read-out: IF; for inhibition at 2.5 µM / IF: percent change in ROS from DMSO controls
T4 construct: freshly isolated muscle mitochondria were assayed; from tissue; host or cells: rat skeletal muscle mitochondria (Wistar, Harlan Laboratories)
Procedure: as §1
Master screening plates were prepared using a Biomek FX liquid handling workstation (Beckman) to transfer 1 μL of each compound into individual wells on 96-well storage plates (80 compounds per plate). […] Just prior to use, plates were brought to room temperature and diluted 300-fold with standard buffer (13.3X=33.3 μM). To monitor the performance of each assay throughout screening and to provide intra-plate normalization reference points, DMSO negative controls and known mitochondrial inhibitor positive controls were included on each Master compound plate.
as §3
To assess the effects of a compound on ROS production from the flavin binding site of complex I (IF), Start Solution containing 5 mM glutamate, 5 mM malate and 4 μM rotenone was distributed into standard 96-well transfer plates. A Biomek FX workstation was programmed to dispense solutions into black 96-well assay plates. Solutions were dispensed to all assay plates in the following order: ROS Detection solution described in Example 3, Mitochondria solution described in Example 1 to a final concentration of 0.3 mg/ml, and Compound dilutions described in Example 2. Duplicate assay plates were made and each was initiated by the addition of 3.3X Start solution containing 5 mM glutamate, 5 mM malate and 4 μM rotenone. Plates were incubated in the dark at room temperature for 30-40 minutes before acquiring endpoint fluorescence using a Victor 3V plate reader (Perkin Elmer) equipped with 550/590 nm excitation/emission filters.
The fluorescence values in each well were scaled as the percent change from the intra-plate DMSO controls with the appropriate inhibitor positive controls defined as −100%. Following initial scaling, intra-plate normalized values were subjected to Tukey's two-way median polish to remove row and column dependent positional effects (Malo, N. et al. (2006) Statistical practice in high-throughput screening data analysis. Nat. Biotechnol. 24(2): 167-75).

[7] = Table 7, percent change in ROS from DMSO controls, read-out: IIIQO
[8] = percent change in ROS from DMSO controls
[9] = Table 9, percent change in ROS from DMSO controls, read-out: IIIQo
[10] = Table 4, 5 mM succinate, 4 μM rotenone, 2.5 μM antimycin A, compounds 2.5 μM, percent change from DMSO, read-out: % Reduction in ROS production (IIIQO)

T4 sequence (Q5XIH3 21-464 limits assumed, one chain of several): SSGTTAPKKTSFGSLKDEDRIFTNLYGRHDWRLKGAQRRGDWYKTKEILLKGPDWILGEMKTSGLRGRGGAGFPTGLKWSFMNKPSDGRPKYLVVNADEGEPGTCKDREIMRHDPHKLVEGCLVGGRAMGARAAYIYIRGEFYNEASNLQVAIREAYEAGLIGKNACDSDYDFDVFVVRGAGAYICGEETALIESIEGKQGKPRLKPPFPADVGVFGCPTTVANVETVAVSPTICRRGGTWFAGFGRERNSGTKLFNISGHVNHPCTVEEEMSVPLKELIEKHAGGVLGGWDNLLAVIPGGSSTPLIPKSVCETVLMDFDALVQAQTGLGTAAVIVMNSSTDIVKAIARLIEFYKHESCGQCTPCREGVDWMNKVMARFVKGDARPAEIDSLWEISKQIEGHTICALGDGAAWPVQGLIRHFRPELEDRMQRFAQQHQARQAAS
T2 sequence (Q920L2 35-656): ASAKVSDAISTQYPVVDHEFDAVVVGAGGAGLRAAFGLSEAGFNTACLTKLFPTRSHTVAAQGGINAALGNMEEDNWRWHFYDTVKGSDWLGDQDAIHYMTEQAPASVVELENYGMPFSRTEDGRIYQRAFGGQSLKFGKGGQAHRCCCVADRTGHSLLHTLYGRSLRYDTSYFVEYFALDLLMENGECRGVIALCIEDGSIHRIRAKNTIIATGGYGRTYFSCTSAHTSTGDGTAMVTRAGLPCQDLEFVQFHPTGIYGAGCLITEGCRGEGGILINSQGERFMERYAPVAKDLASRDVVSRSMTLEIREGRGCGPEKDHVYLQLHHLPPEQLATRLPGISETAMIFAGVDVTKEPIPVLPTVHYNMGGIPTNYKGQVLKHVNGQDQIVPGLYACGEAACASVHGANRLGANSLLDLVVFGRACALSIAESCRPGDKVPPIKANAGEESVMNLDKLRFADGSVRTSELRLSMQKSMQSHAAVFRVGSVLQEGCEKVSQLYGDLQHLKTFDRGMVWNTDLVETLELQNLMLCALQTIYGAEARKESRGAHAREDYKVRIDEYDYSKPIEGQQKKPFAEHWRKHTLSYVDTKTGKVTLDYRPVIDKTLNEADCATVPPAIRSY
T2 sequence (P21913 31-282): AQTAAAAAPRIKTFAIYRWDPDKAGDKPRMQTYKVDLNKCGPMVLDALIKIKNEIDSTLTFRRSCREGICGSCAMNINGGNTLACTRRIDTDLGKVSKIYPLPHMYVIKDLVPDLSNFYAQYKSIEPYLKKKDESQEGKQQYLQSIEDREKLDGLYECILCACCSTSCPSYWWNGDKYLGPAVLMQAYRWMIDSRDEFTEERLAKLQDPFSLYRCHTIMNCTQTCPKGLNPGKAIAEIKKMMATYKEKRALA
T2 sequence (Q641Z9 30-169 limits assumed): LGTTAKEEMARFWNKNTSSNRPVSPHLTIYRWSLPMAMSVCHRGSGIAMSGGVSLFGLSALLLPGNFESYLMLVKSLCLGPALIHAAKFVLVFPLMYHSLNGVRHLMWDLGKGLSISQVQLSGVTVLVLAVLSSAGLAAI
T2 sequence (Q6PCT8 57-159): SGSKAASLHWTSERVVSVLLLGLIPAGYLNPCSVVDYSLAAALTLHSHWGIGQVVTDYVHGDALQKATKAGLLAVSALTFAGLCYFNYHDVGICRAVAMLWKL

| SMILES | inhibition at 2.5 µM [1, 7] [%] | IIIQO [1, 8] | inhibition at 2.5 µM [1, 9] [%] | ΔΨm ([2]; Table 8, glutamate) | ΔΨm ([2]; Table 9, glutamate) | % Reduction in ROS production (IQ) [3] [%] | IQ ([3]; Table 7) | IQ ([3]; Table 8) | IQ ([3]; Table 9) | inhibition at 2.5 µM [4] [%] | SDH ([4]; Table 8) | SDH ([4]; Table 9) | inhibition [5] [%] | GPDH ([5]; Table 8) | GPDH ([5]; Table 9) | inhibition at 2.5 µM [6] [%] | IF ([6]; Table 8) | IF ([6]; Table 9) | inhibition at 2.5 µM [1, 10] [%] | other results |
| --- | --- | --- | --- | --- | --- | --- | --- | --- | --- | --- | --- | --- | --- | --- | --- | --- | --- | --- | --- | --- |
| CC(C)(C)NS(=O)(=O)c1ccc2c(c1)C(=O)c1ccccc1C2=O [Compound 1] | -1 | 1.0 | -1 | −1.5 | −1.5 | −60.6 | −60.6 | −60.6 | −60.6 | 8.2 | −8.2 | −8.2 | -4.1 | 4.1 | 4.1 | -10 | 10.0 | 10.0 | – | – |
| CCSC1=C(C#N)C2(CCCC2)C(C#N)C(=O)N1 (stereo not shown) [Compound 2] | -1.9 | 1.9 | -1.9 | −3.4 | −3.4 | −52.5 | −52.5 | −52.5 | −52.5 | -2.6 | 2.6 | 2.6 | 0.1 | −0.1 | −0.1 | 7 | −7.0 | −7.0 | – | – |
| CC(C)(C)C1=NN(c2c(Cl)cc(Cl)cc2Cl)C(=O)C1 [Compound 3] | -1 | 1.0 | -1 | 1.2 | 1.2 | −52.4 | −52.4 | −52.4 | −52.4 | 6.8 | −6.8 | −6.8 | 0.1 | −0.1 | −0.1 | -0.5 | 0.5 | 0.5 | – | – |
| CC(C)Cc1ccc(C(C)C(=O)Nc2ccccc2O)cc1 (stereo not shown) [Compound 5] | 3.6 | −3.6 | 3.6 | −3.5 | −3.5 | −40.0 | −40.0 | −40.0 | −40.0 | -2.3 | 2.3 | 2.3 | -0.7 | 0.7 | 0.7 | -0.2 | 0.2 | 0.2 | – | – |
| Fc1ccc(N2CCN(CC(c3ccccc3)c3ccccc3)CC2)cc1 [Compound 39] | 26.8 | −26.8 | 26.8 | 0.5 | 0.5 | – | 2.7 | 2.7 | 2.7 | – | – | – | 4.7 | −4.7 | −4.7 | 0.9 | −0.9 | −0.9 | 26.8 | – |
| COC(=O)c1ccc(CN(CCc2ccccc2)Cc2ccccc2)cc1 [Compound 43] | 23.2 | −23.2 | 23.2 | 0.6 | 0.6 | – | −0.5 | −0.5 | −0.5 | – | – | – | -3.4 | 3.4 | 3.4 | 4.4 | −4.4 | −4.4 | 23.2 | – |
| CCCCN(Cc1ccccc1)Cc1cccc(Oc2ccc(Cl)cc2)c1 [Compound 44] | 23.1 | −23.1 | 23.1 | 1.0 | 1.0 | – | 0.4 | 0.4 | 0.4 | – | – | – | 3.4 | −3.4 | −3.4 | -3.1 | 3.1 | 3.1 | 23.1 | – |
| C=C(C)CN(CC)Cc1cc([N+](=O)[O-])ccc1Cl [Compound 45] | 20.2 | −20.2 | 20.2 | 0.3 | 0.3 | – | −0.2 | −0.2 | −0.2 | – | – | – | -3.1 | 3.1 | 3.1 | -0.5 | 0.5 | 0.5 | 20.2 | – |
| CCN1CCN(C/C=C/c2ccc(N(C)C)cc2)CC1 [Compound 48] | 5.7 | −5.7 | 5.7 | 0.0 | 0.0 | – | −2.9 | −2.9 | −2.9 | – | – | – | 13.4 | −13.4 | −13.4 | 6.5 | −6.5 | −6.5 | – | inhibition at 2.5 µM ([5]; Table 6, 25 mM glycerol phosphate, rotenone, antimycin A, malonate, myxothiazol, compounds 2.5 μM, scaled to IQ positive controls, read-out: % Reduction in ROS Production (GPDH)): 13.4% |
| CCCCN(Cc1ccccc1)Cc1cc(OC)c(OC)cc1[N+](=O)[O-] [Compound 79] | – | −19 | – | 1 | – | – | – | 0 | – | – | – | – | – | −1 | – | – | −17 | – | – | % Reduction in ROS production (IIIQO) ([1]; Table 4, 5 mM succinate, 4 μM rotenone, 2.5 μM antimycin A, compounds 2.5 μM, percent change from DMSO): −19%; % Reduction in ROS production (IF) ([6]; Table 3, 5 mM glutamate, 5 mM malate, 4 μM rotenone, compounds 2.5 μM, percent change from DMSO, positive control −100%): −17% |
